PubChem BioAssay (NCI)
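These data come from cells grown in 96-well plates and exposed to compound for 48 hours at five concentrations. GI50 marks 50% less growth. TGI marks complete inhibition of growth.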

How the values were obtained:
Assay in all cases: NCI tumour cell line growth inhibition, 48 h
A498 renal = test system: A498 renal
MDA-MB-231 breast = test system: MDA-MB-231 breast
U251 CNS = test system: U251 CNS
IGROV1 ovarian = test system: IGROV1 ovarian
MOLT-4 leukemia = test system: MOLT-4 leukemia
COLO 205 colon = test system: COLO 205 colon
HCT-116 colon = test system: HCT-116 colon
BT-549 breast = test system: BT-549 breast
SR leukemia = test system: SR leukemia
PC-3 prostate = test system: PC-3 prostate
NCI-H226 lung = test system: NCI-H226 lung
UACC-62 melanoma = test system: UACC-62 melanoma
A549 NSCLC = test system: A549 NSCLC
EKVX NSCLC = test system: EKVX NSCLC
UO-31 renal = test system: UO-31 renal
MDA-MB-468 breast = test system: MDA-MB-468 breast
HOP-62 NSCLC = test system: HOP-62 NSCLC
M14 melanoma = test system: M14 melanoma
ACHN renal = test system: ACHN renal
SNB-19 CNS = test system: SNB-19 CNS
CCRF-CEM leukemia = test system: CCRF-CEM leukemia
OVCAR-5 ovarian = test system: OVCAR-5 ovarian
RXF 393 renal = test system: RXF 393 renal
UACC-257 melanoma = test system: UACC-257 melanoma
SF-268 CNS = test system: SF-268 CNS
MALME-3M melanoma = test system: MALME-3M melanoma
HS 578T breast = test system: HS 578T breast
OVCAR-3 ovarian = test system: OVCAR-3 ovarian
NCI-H460 lung = test system: NCI-H460 lung
OVCAR-4 ovarian = test system: OVCAR-4 ovarian
SN12C renal = test system: SN12C renal
786-0 renal = test system: 786-0 renal
MCF7 breast = test system: MCF7 breast
DU-145 prostate = test system: DU-145 prostate
KM12 colon = test system: KM12 colon
SK-MEL-2 melanoma = test system: SK-MEL-2 melanoma
TK-10 renal = test system: TK-10 renal
CAKI-1 renal = test system: CAKI-1 renal
HL-60(TB) leukemia = test system: HL-60(TB) leukemia
RPMI-8226 leukemia = test system: RPMI-8226 leukemia
OVCAR-8 ovarian = test system: OVCAR-8 ovarian
HOP-92 NSCLC = test system: HOP-92 NSCLC
SNB-75 CNS = test system: SNB-75 CNS
NCI/ADR-RES ovarian = test system: NCI/ADR-RES ovarian
SF-295 CNS = test system: SF-295 CNS
SK-MEL-5 melanoma = test system: SK-MEL-5 melanoma
T-47D breast = test system: T-47D breast
SK-MEL-28 melanoma = test system: SK-MEL-28 melanoma
SW-620 colon = test system: SW-620 colon
SF-539 CNS = test system: SF-539 CNS
HT29 colon = test system: HT29 colon
MDA-MB-435 = test system: MDA-MB-435
HCT-15 colon = test system: HCT-15 colon
SK-OV-3 ovarian = test system: SK-OV-3 ovarian
NCI-H23 lung = test system: NCI-H23 lung
HCC-2998 colon = test system: HCC-2998 colon
LOX IMVI melanoma = test system: LOX IMVI melanoma
K-562 leukemia = test system: K-562 leukemia
NCI-H522 lung = test system: NCI-H522 lung

## O=C(CSc1nnc(-c2ccc(-c3nc4ccccc4[nH]3)cc2)o1)Nc1ccc(Cl)cc1
A498 renal
  GI50: 18.6 µM
  TGI: 42.9 µM
MDA-MB-231 breast
  GI50: 11.4 µM
  TGI: 24 µM
U251 CNS
  GI50: 15.4 µM
  TGI: 30.8 µM
IGROV1 ovarian
  GI50: 15.1 µM
  TGI: 31.3 µM
MOLT-4 leukemia
  GI50: 4.42 µM
  TGI: > 100 µM
COLO 205 colon
  GI50: 23 µM
  TGI: > 100 µM
HCT-116 colon
  GI50: 4.14 µM
  TGI: 17.3 µM
BT-549 breast
  GI50: 3.4 µM
  TGI: 14 µM
SR leukemia
  GI50: 10.1 µM
  TGI: > 100 µM
PC-3 prostate
  GI50: 3.9 µM
  TGI: 16.7 µM
NCI-H226 lung
  GI50: 2.5 µM
  TGI: 9.38 µM
UACC-62 melanoma
  GI50: 11.4 µM
  TGI: 23.9 µM
A549 NSCLC
  GI50: 3.65 µM
  TGI: 16.4 µM
EKVX NSCLC
  GI50: 10.8 µM
  TGI: 28.1 µM
UO-31 renal
  GI50: 13 µM
  TGI: 25.7 µM
MDA-MB-468 breast
  GI50: 14.7 µM
  TGI: 29.6 µM
HOP-62 NSCLC
  GI50: 5.74 µM
  TGI: 22.1 µM
M14 melanoma
  GI50: 4.9 µM
  TGI: 18.3 µM
ACHN renal
  GI50: 5.05 µM
  TGI: 17.9 µM
SNB-19 CNS
  GI50: 14.6 µM
  TGI: 29.7 µM
CCRF-CEM leukemia
  GI50: 5.58 µM
  TGI: 33.1 µM
OVCAR-5 ovarian
  GI50: 14.8 µM
  TGI: 36.6 µM
RXF 393 renal
  GI50: 4.41 µM
  TGI: 16.7 µM
UACC-257 melanoma
  GI50: 9.3 µM
  TGI: 26.9 µM
SF-268 CNS
  GI50: 4.14 µM
  TGI: 20 µM
MALME-3M melanoma
  GI50: 3.37 µM
  TGI: 13.2 µM
HS 578T breast
  GI50: 11.9 µM
  TGI: 42.6 µM
OVCAR-3 ovarian
  GI50: 5.78 µM
  TGI: 19.1 µM
NCI-H460 lung
  GI50: 2.93 µM
  TGI: 10.9 µM
OVCAR-4 ovarian
  GI50: 9.74 µM
  TGI: 22.2 µM
SN12C renal
  GI50: 10.1 µM
  TGI: 22.3 µM
786-0 renal
  GI50: 2.04 µM
  TGI: 4.45 µM
MCF7 breast
  GI50: 3.73 µM
  TGI: 19.3 µM
DU-145 prostate
  GI50: 4.62 µM
  TGI: 17.4 µM
KM12 colon
  GI50: 10.6 µM
  TGI: 39.5 µM
SK-MEL-2 melanoma
  GI50: 15.9 µM
  TGI: 35.3 µM
TK-10 renal
  GI50: 24.8 µM
  TGI: 66.9 µM
CAKI-1 renal
  GI50: 3.51 µM
  TGI: 13.2 µM
HL-60(TB) leukemia
  GI50: 11.1 µM
  TGI: > 100 µM
RPMI-8226 leukemia
  GI50: 8.39 µM
  TGI: 80.3 µM
OVCAR-8 ovarian
  GI50: 5.91 µM
  TGI: 22.3 µM
HOP-92 NSCLC
  GI50: 5.06 µM
  TGI: 21.5 µM
SNB-75 CNS
  GI50: 2.44 µM
  TGI: 14.5 µM
NCI/ADR-RES ovarian
  GI50: 14.8 µM
  TGI: 85.7 µM
SF-295 CNS
  GI50: 7.2 µM
  TGI: 22 µM
SK-MEL-5 melanoma
  GI50: 12.6 µM
  TGI: 26.7 µM
T-47D breast
  GI50: 9.84 µM
  TGI: 44.1 µM
SK-MEL-28 melanoma
  GI50: 4.02 µM
  TGI: 14.9 µM
SW-620 colon
  GI50: 3.58 µM
  TGI: 15.8 µM
SF-539 CNS
  GI50: 5.26 µM
  TGI: 17.9 µM
HT29 colon
  GI50: 6.62 µM
  TGI: 30 µM
MDA-MB-435
  GI50: 3.3 µM
  TGI: 13.5 µM
HCT-15 colon
  GI50: 6.16 µM
  TGI: 23.9 µM
SK-OV-3 ovarian
  GI50: 18.4 µM
  TGI: 43.7 µM
NCI-H23 lung
  GI50: 7.12 µM
  TGI: 23.2 µM
HCC-2998 colon
  GI50: 24.5 µM
  TGI: > 100 µM
LOX IMVI melanoma
  GI50: 1.94 µM
  TGI: 4.4 µM
K-562 leukemia
  GI50: 4.59 µM
  TGI: > 100 µM
NCI-H522 lung
  GI50: 4.94 µM
  TGI: 21.6 µM
